Laboratory results published in PMC6746079, “Development of Pyridine-based Inhibitors for the Human Vaccinia-related Kinases 1 and 2” (ACS Medicinal Chemistry Letters, 2019).

Test system: HeLa cells
Type: cell-based, human
Conditions: MTT, concluding statement

Cc1ncc(-c2cc(F)c(O)c(F)c2)cc1-c1cc(F)c(O)c(F)c1 [compound 26]
toxicity to human cells: not overtly toxic
